Where two headings read alike, the source gives them in different places.
Columns and labels:
[1] = test system: normally myelinated optic nerves from control mice (shi^+/−, shi^+/+); test: Compound action potential (CAP) of dissected normally myelinated optic nerve; format: cell-based, mouse
Method: (§1) In order to determine if the drugs could also be effective in enhancing compound action potentials (CAP), the effects of these compounds on the CAP of hypomyelinated optic nerves from Shiverer mice (shi^−/−) and control mice (shi^+/−, shi^+/+) were tested. Shiverer mice lack compact myelin in the CNS due to a null mutation of the myelin basic protein gene (MBP).
optic nerves were dissected from 12-16 week old Shiverer (shi^−/−) and control mice (shi^+/− and shi^+/+). Mice were euthanized by CO2 overdose and the optic nerves were quickly dissected between the eyeball and the optic chiasm. […]
compound action potentials (CAP) from hypomyelinated nerves (Shiverer mice, shi^−/−) and myelinated nerves (litermate controls, shi^+/− and shi^+/+) were recorded using suction electrodes as described by Stys et al. Briefly, the dissected optic nerve was placed inside a chamber containing oxygenated (5% CO2, 95% O2) aCSF (300 μL) between two suction electrodes (stimulus and recording electrodes) forming a tight seal on each end. […] The study was conducted at 22.2±1.3° C. to allow for slower conduction and the temperature was monitored throughout the experiment. […] The half-maximal effective concentration (EC50) for each drug was calculated by plotting the final over initial amplitude vs. concentration and fitted to the Hill equation using Origin.

C57Bl/6J mice = test: In vivo effects (tremor, seizures) after intraperitoneal injection; set-up: species or system mouse; conditions: for Effect: N = 5; for effects in mice: doses up to 20 times higher
Method: A consequence of excessive K^+ channel blockage is the advent of seizures. 4-AP is known to cause seizures in mice at high doses.
At high doses, 4-AP causes tremors, muscle spasms and seizures.
10-week-old female C57Bl/6J mice were given an intraperitoneal injection of the drug under investigation and monitored continuously for 4 h. After 4 h no signs of drug effects could be observed. At least 72 h passed between injections to the same mice.

[2] = Pharmacokinetic study after single intravenous dose; format: in vivo, mice (CD-1); conditions: female, CD-1, mouse, mice, i.v. 0.75 mg/kg
Method: 39 mice (CD-1, 6-weeks old, female) were used in the study. […] The drugs were dissolved in PBS and administered via tail-vein injection to achieve a dose of 0.75 mg/kg of body weight. At specific times post injection (10 min, 30 min, 1 h, 2 h, 4 h and 24 h) blood and brain samples were collected. Blood samples were transferred into tubes containing 5% EDTA, stored on ice, and centrifuged (4° C., 1000 rpm, 15 min). Plasma (upper phase) was transferred to a new tube and stored at −80° C. for further analysis. Brain tissue samples were collected after intracardial perfusion of the mouse. Brain tissue samples were stored at −80° C. for further analysis. Drug quantification in plasma: Briefly, to a 1.5 mL Eppendorf tube containing 50 μl of plasma, 200 μl of ice-cold acetonitrile containing 1,000 ng/ml Progesterone (used as internal standard) was added in order to precipitate the proteins. The sample was vortexed, mixed and centrifuged at 4000×g for 10 min at 4° C. to remove precipitates. 140 μl supernatant was collected and transferred to a 500 μl 96-well polypropylene plate and covered using silicone plate mat. 40 μl of sample was injected in into LC-MS. Using the same sample preparation procedure 11 standard solutions ranging from 50 ng/mL to 100 μg/mL were prepared, analyzed by LC-MS and used as a calibration curve to correlate peak area of the samples to concentration. Drug quantification in brain: the mouse brain was weighted and 1 mL of water per 400 mg of tissue was added. The sample was homogenized using an electric tissue homogenizer. To a 1.5 mL Eppendorf tube containing 50 μl of homogenized sample, 200 μl of ice-cold acetonitrile containing 1000 ng/ml Demeclocycline (used as internal standard) was added in order to precipitate the proteins. The sample was vortexed, mixed and centrifuged at 4000×g for 10 min at 4° C. to remove precipitates. 140 μl supernatant was collected and transferred to a 500 μl 96-well polypropylene plate and covered using silicone plate mat. 40 μl of each sample was injected into LC-MS. Using the same sample preparation procedure 11 standard solutions ranging from 50 ng/mL to 100 μg/mL were prepared, analyzed by LC-MS and used as a calibration curve to correlate peak area of the samples to concentration.
(§2) The Hill equation used to fit the data from the voltage-clamp and the optic nerve experiments was as follows: y=y0+(yf−y0)*x^n/(k^n+x^n); where n refers to the Hill coefficient (typically 1±0.1) and k refers to EC50 or IC50. y0 and yf refers to the origin and final ordinate values and were fixed at 1±0.1 or 0±0.1 depending on the experiment. EC50=10^<log EC50>; where <log EC50>=average of log EC50 values from all experiments with the same drug. 95% C.I.=[Upper Limit . . . Lower Limit]; where U.L.=10^(log EC50+s.d.) and L.L.=10^(log EC50−s.d.). The half-life (t1/2) in the stability and pharmacokinetic experiments was calculated by fitting the data to the equation Ct=C0*exp(−k*t) where C0=initial concentration, Ct=concentration at time t, and k=ln 2/t1/2. Student t-test was used to compare results and P<0.05 was considered significant.

K^+ channels = conditions: cited from earlier work
[3] = Brain distribution of [^3H] 4-AP in LPC-injected mice by autoradiography; format: in vivo; conditions: [^3H] 4-AP 0.4 μCi/g i.v., 20-60 min
Method: The inventors conducted an experiment to evaluate if 4-AP selectively localizes in demyelinated (injured) areas. […] The lesions were caused by prior injection of lysophosphatidylcholine (LPC), also called lysolecithin, into their brains, which causes focal demyelination at the site of injection. Two days after LPC injection, at the peak of demyelination, the animals were injected with [^3H] […] Twenty to sixty minutes after injection of [^3H] 4-AP the mice were euthanized and their brains were dissected and frozen. The frozen brains were then cut into 20 μm sections using a cryostat and the sections mounted in slides. The slides were then exposed to radiation sensitive X-ray film at −80° C. in the dark for forty days to capture the distribution of radioactivity coming from [^3H] 4-AP throughout the brain.
After autoradiographic exposure, the slides were stained for myelin basic protein (MBP) using immunohistochemistry and imaged using fluorescent microscopy to determine the areas of demyelination.

[4] = test system: hypomyelinated optic nerves from Shiverer mice (shi^−/−); test: Compound action potential (CAP) of dissected hypomyelinated optic nerve; format: cell-based, mouse; conditions: for EC50: Mus musculus, hypomyelinated Shiverer optic nerve, 22 °C, Hill fit, read-out: half-maximal effective concentration (EC50) in enhancing the CAP
Method: as §1
optic nerves were dissected from 12-16 week old Shiverer (shi^−/−) and control mice (shi^+/− and shi^+/+). Mice were euthanized by CO2 overdose and the optic nerves were quickly dissected between the eyeball and the optic chiasm. The nerves were incubated for 30 min at 37° C. in oxygenated (95% O2, 5% CO2) aCSF solution (126 mM NaCl, 3 mM KCl, 2 mM MgSO4, 26 mM NaHCO3, 2 mMCaCl2, 10 mM dextrose, pH 7.5) before the experiment.
compound action potentials (CAP) from hypomyelinated nerves (Shiverer mice, shi^−/−) and myelinated nerves (litermate controls, shi^+/− and shi^+/+) were recorded using suction electrodes as described by Stys et al. Briefly, the dissected optic nerve was placed inside a chamber containing oxygenated (5% CO2, 95% O2) aCSF (300 μL) between two suction electrodes (stimulus and recording electrodes) forming a tight seal on each end. Two additional electrodes were placed in the bath for reference. A supramaximal pulse (250 mV, 20 μs) was applied at the stimulating end of the nerve. The resulting CAP was amplified from the recording electrode using a high impedance low-noise amplifier (EG&G Princeton Applied Research Corporation) and filtered and sampled at 10-100 kHz. […] After each measurement the chamber was washed for 5 min (flow 1 mL/min) with oxygenated aCSF. The study was conducted at 22.2±1.3° C. to allow for slower conduction and the temperature was monitored throughout the experiment. CAP recordings were acquired with a SBC6711 board (Innovative Integration) controlled by in-house written software. Analysis of the traces was done using an in-house software. The half-maximal effective concentration (EC50) for each drug was calculated by plotting the final over initial amplitude vs. concentration and fitted to the Hill equation using Origin.
as §2

[5] = Parallel Artificial Membrane Permeability Assay (PAMPA); format: in vitro ADME; conditions: porcine polar brain lipids, 0.5 mM, 16 h, n=3
Method: In this experiment, the inventors included highly permeable verapamil and lowly permeable theophylline as controls.
Permeability studies were performed as previously described by Sugano, et al., 2011. A 96-well microplate (acceptor compartment) was filled with PBS containing 5% DMSO. A hydrophobic filter plate (donor compartment) was placed atop the buffer-filled plate and the filter surface was impregnated with 5 μL solution of porcine polar brain lipids (Avanti Lipids) in dodecane (1% w/v). 150 μL of the test compounds dissolved in PBS containing 5% DMSO (compound concentration 0.5 mM) was added to the donor compartment and covered. The only barrier between the two compartments was the artificial BBB membrane containing the porcine polar brain lipids. The whole system was incubated for several hours.

Shaker K^+ channel = molecular target: T1, Shaker K^+ channel (Drosophila melanogaster, UniProt P08510); test: Inhibition of K+ currents, cut-open oocyte voltage clamp; format: cell-based, Xenopus oocytes; conditions: for IC50: relative K+ current at +20 mV, Xenopus oocytes, Hill fit, read-out: half-maximal inhibitory concentration (IC50); for fold less potent than 4-AP: cut-open oocyte voltage clamp (Example 2)
T1 construct: injecting approximately 50 ng of WT Shaker cRNA (kit Ambion) into the oocytes; expressed in transfected cells; host or cells: Xenopus laevis oocytes (cRNA injection)
T1 sequence (P08510 whole entry): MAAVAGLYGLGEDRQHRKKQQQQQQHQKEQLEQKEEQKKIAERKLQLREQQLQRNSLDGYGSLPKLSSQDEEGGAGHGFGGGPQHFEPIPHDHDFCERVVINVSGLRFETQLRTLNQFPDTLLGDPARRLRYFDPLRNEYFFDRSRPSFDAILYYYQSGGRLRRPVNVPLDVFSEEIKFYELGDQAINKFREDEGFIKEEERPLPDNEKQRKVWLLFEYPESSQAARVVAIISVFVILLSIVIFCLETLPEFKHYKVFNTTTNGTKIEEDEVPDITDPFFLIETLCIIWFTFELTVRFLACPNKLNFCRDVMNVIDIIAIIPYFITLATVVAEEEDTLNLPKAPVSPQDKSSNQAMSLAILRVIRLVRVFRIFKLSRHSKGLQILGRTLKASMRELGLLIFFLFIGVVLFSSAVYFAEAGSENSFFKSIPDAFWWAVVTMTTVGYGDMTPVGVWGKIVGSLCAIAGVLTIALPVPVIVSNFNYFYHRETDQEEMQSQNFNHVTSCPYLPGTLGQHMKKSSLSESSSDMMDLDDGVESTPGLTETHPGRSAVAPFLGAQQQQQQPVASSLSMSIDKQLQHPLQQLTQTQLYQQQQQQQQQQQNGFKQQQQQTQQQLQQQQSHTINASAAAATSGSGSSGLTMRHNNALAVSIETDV
Method: Using the cut-open oocyte voltage clamp studies to screen compounds to determine their potency towards Kv1 cannels was previously described in Starace and Bezanilla et al. (2004).
For this experiment, Shaker K^+ channel from D. […] was chosen as the archetypical voltage gated K^+ channel that gives name to the family.
Electrophysiology studies are conducted according to the protocol by Stefani and Bezanilla (1998). Briefly, K^+ channel Shaker cRNA is injected into Xenopus oocytes 24 h after their surgical extraction from adult frogs. 1-5 days after injection channel currents are recorded using the cut-open voltage-clamp.
K^+ channel expression in Xenopus oocytes membranes was achieved by injecting approximately 50 ng of WT Shaker cRNA (kit Ambion) into the oocytes 24 h after surgical extraction from adult frogs and collagenase treatment. Injected oocytes were maintained in a standard oocytes solution (100 mM NaCl, 5 mM KCl, 2 mM CaCl2, and 10 mM Hepes at pH 7.5) at 16.5° C. and recordings were performed 1-3 days after injection.
K^+ currents were recorded from oocytes expressing Shaker K^+ channels using the cut-open voltage clamp technique as described by Stefani and Bezanilla. The internal solution was 120 mM KOH, 20 mM HEPES-methyl sulfonate (MES) pH 7.4, 2 mM EGTA. The external solution was 12 mM KOH, 105 mM N-methyl-D-glucamine-MES pH 7.4, 20 mM HEPES, 2 mM CaOH. […] After application, cells were voltage-clamped at least 5 min at 0 mV, then voltage-clamped at −80 mV for 1-2 min. K^+ currents were generated by applying series of 50 ms pulses from −70 mV to +40 mV in increments of 10 mV. […] Analysis of the traces was done using an in-house software. The half-maximal inhibitory concentration (IC50) for each drug was calculated by plotting the relative K^+ current vs. concentration and fitted to the Hill equation using the software Origin.
EC50=10^<log EC50>; where <log EC50>=average of log EC50 values from all experiments with the same drug. 95% C.I.=[Upper Limit . . . Lower Limit]; where U.L.=10^(log EC50+s.d.) and L.L.=10^(log EC50−s.d.). The half-life (t1/2) in the stability and pharmacokinetic experiments was calculated by fitting the data to the equation Ct=C0*exp(−k*t) where C0=initial concentration, Ct=concentration at time t, and k=ln 2/t1/2. Student t-test was used to compare results and P<0.05 was considered significant.

## Nc1ccncc1 [4-AP, 4-aminopyridine, reference compound]
[1]
  increase in CAP amplitude: around 5%
C57Bl/6J mice; i.p., 30 μmol/kg
  Effect: Mild tremor, mouse quiet
C57Bl/6J mice; i.p., 60 μmol/kg
  Effect: Severe tremor, mild jerks, salivation
C57Bl/6J mice; i.p., 90 μmol/kg
  duration of tremors and seizures: ~2 h
  Effect: Severe tremors and seizures that start
C57Bl/6J mice; i.p., 90 μmol/kg (highest dose)
  start of tremors and seizures post-injection: 10 min
[2]; brain and plasma, read-out: Cbrain/Cplasma (maximum in the brain over maximum in plasma)
  Kp: 0.1 ± 0.05
[2]; brain, read-out: half-life in brain (converted)
  half-life: 1.9 h
[2]; plasma, read-out: half-life in plasma (converted)
  half-life: 0.33 h
K^+ channels; in vitro
  in vitro affinity: ~250 µM
K^+ channels; in vivo
  concentration active in vivo: ~0.5 µM
[3]
  brain localization by autoradiography: localizes to demyelinated areas but not myelinated areas
[4]
  EC50: 0.0592 mM
[4]; hypomyelinated nerves
  increase in CAP amplitude: 2-4 fold
[5]
  Pe: permeability coefficient across artificial membrane: 0.236 ± 0.003 ×10⁻⁶ cm/s

## Nc1ccncc1CO [3-MeOH-4-AP, 3-methanol-4-aminopyridine, reference compound]
C57Bl/6J mice
  effects in mice: did not cause any effects
C57Bl/6J mice; i.p., 960 μmol/kg
  Effect: No effect
Shaker K^+ channel
  IC50: 4.38 mM
[4]
  EC50: 0.386 mM

## Nc1ccncc1CCF [3-EtF-4-AP, 3-fluoroethyl-4-aminopyridine]
Shaker K^+ channel
  fold less potent than 4-AP: at least a hundred fold-less potent
  IC50: > 10 mM

## Nc1ccnc(F)c1 [2-F-4-AP, 2-fluoro-4-aminopyridine]
C57Bl/6J mice
  effects in mice: did not cause any effects
C57Bl/6J mice; i.p., 1920 μmol/kg
  Effect: No effect
Shaker K^+ channel
  fold less potent than 4-AP: at least a hundred fold-less potent
  IC50: > 10 mM
[4]; hypomyelinated optic nerve
  effect on CAP: no effect

## Nc1ccncc1CF [3-MeF-4-AP, 3-fluoromethyl-4-aminopyridine]
C57Bl/6J mice; i.p., 30 μmol/kg
  Effect: No effect
C57Bl/6J mice; i.p., 60 μmol/kg
  Effect: Very mild tremor. Normal after 30 min
C57Bl/6J mice; i.p., 90 μmol/kg
  duration of effect (tremors, seizures or jerks): ~45 min
  Effect: Tremor and occasional jerks that last ca.
C57Bl/6J mice; i.p., 120 μmol/kg
  duration of tremor and seizures: min post-injection and last ca. 45 min.
  mice died of seizure: 1 of 5 mice died of seizure
  start of tremor and seizures post-injection: 5 min
  Effect: Severe tremor and seizures
C57Bl/6J mice; i.p., mice
  in vivo potency compared with 4-AP: slightly less potent than 4-AP
Shaker K^+ channel
  fold less potent than 4-AP: around 10 fold
  IC50: 7.45 mM
Shaker K^+ channel; voltage-clamp and optic nerve experiments together
  times less potent than 4-AP: 6-20 times
[4]
  EC50: 0.286 mM
